Source: patent publication US12187696B2, “Urea motif containing compounds and derivatives thereof as antibacterial drugs” (Technische Universität München, priority 2016, dated 2025)

Legend:
Assay type in all cases: cell-based
[1] = test system: Staphylococcus aureus NCTC8325; test: Minimal inhibitory concentration (MIC) assay; conditions: Staphylococcus aureus, NCTC8325; inhibition of bacterial growth of S. aureus NCTC 8325; obtained by MIC assay
Description: Minimum inhibitory concentrations (MICs) represent the lowest concentration of sample that will inhibit the visible growth of a microorganism after overnight incubation, and was obtained by a 96 well plate-based assay (Thermo Scientific) with serial dilutions of the probes tested. […] Bacteria were diluted in fresh medium to a concentration of 10^5 CFU/mL. In the case of all other bacteria species tested, fresh media was inoculated 1/10000 and directly used for testing. Diluted bacterial cultures (99 μL) were added to various concentrations of probe (1 μL of the respective stock in DMSO). A growth control containing DMSO (1 μL) and cultivated medium (99 μL) and a sterile control containing fresh medium (100 μL) were run on every 96 well plate in triplicates. After incubation at 37° C. with gentle shaking (200 rpm) for 24 h, the dilution series was analysed for microbial growth, usually indicated by turbidity and/or a pellet of bacteria at the bottom of the well. The lowest concentration in the dilution series at which no growth of bacteria could be observed by eye was defined as the minimum inhibitory concentration (MIC) of the probe. MIC values were determined by three independent experiments with at least triplicate runs for each concentration. […] Both compounds were tested against various bacterial strains. […] The assay was performed as described above.

[2] = test system: S. aureus NCTC 8325 persister cells; test: Persister cell assay II; conditions: TSB, with or without 30 μg/mL oxacillin; 20 h or 70 h; 2.4 μM PK/X17-1-150 or PK/X17-4-011, 24 μM sorafenib or PK/X17-2-011, 5 μg/mL ciprofloxacin
Description: Persister cell assay II. Tryptic soy broth (50 mL in 250 mL culture flasks) was inoculated 1:1000 with overnight cultures of NCTC 8325 and grown at 37° C. and 200 rpm until an OD600 of 4 was reached or overnight (ON). Serial dilution were prepared and plated to determine the cell numbers in the inoculum. […]. […] After 20 h (A) or 70 h (B) of treatment, cells were harvested, washed two times with PBS (10000×g, 3 min), serially diluted and plated on agar plates for determination of surviving cell numbers.

[3] = test system: S. aureus NCTC 8325 persister cells; test: Persister cell assay I; conditions: gentamicin-selected persisters in PBS; 70 h; 2.4 μM PK/X17-1-150, 24 μM sorafenib, 5 μg/mL ciprofloxacin

| SMILES | IC50 [1] | viable persister cells (CFU/mL) vs DMSO control [2] | viable persister cells (CFU/mL) vs DMSO control [3] |
| --- | --- | --- | --- |
| COC(=O)c1cccc(Oc2ccc(NC(=O)Nc3ccc(Cl)c(C(F)(F)F)c3)cc2)c1 [Example 1, Methyl 3-(4-(3-(4-chloro-3-(trifluoromethyl)phenyl)ureido)phenoxy)benzoate] | 500 nM |  |  |
| O=C(Nc1ccc(C(=O)c2ccccc2)cc1)Nc1ccc(Cl)c(C(F)(F)F)c1 [Example 2, 1-(4-Benzoylphenyl)-3-(4-chloro-3-(trifluoromethyl)phenyl)urea] | 1000 nM |  |  |
| CNC(=O)c1ccc(NC(=O)Nc2ccc(Cl)c(C(F)(F)F)c2)cc1 [Example 3, 4-(3-(4-Chloro-3-(trifluoromethyl)phenyl)ureido)-N-methylbenzamide] | 30000 nM |  |  |
| COc1ccc(NC(=O)Nc2ccc(Cl)c(C(F)(F)F)c2)cc1 [Example 5, 1-(4-Chloro-3-(trifluoromethyl)phenyl)-3-(4-methoxyphenyl)urea] | 3000 nM |  |  |
| O=C(Nc1ccc2c(c1)OCO2)Nc1ccc(Cl)c(C(F)(F)F)c1 [Example 6, 1-(Benzo[d][1,3]dioxol-5-yl)-3-(4-chloro-3-(trifluoromethyl)phenyl)urea] | 10000 nM |  |  |
| COc1ccc(NC(=O)Nc2ccc(Cl)c(C(F)(F)F)c2)cc1OC [Example 7, 1-(4-Chloro-3-(trifluoromethyl)phenyl)-3-(3,4-dimethoxyphenyl)urea] | 30000 nM |  |  |
| COc1cc(NC(=O)Nc2ccc(Cl)c(C(F)(F)F)c2)cc(OC)c1OC [Example 8, 1-(4-Chloro-3-(trifluoromethyl)phenyl)-3-(3,4,5-trimethoxyphenyl)urea] | 30000 nM |  |  |
| O=C(Nc1ccc(Cl)c(C(F)(F)F)c1)Nc1cccc2c1OC(F)(F)O2 [Example 9, 1-(4-Chloro-3-(trifluoromethyl)phenyl)-3-(2,2-difluorobenzo[d][1,3]dioxol-4-yl)urea] | 1000 nM |  |  |
| FC1(F)Oc2ccc(NC(=S)Nc3ccc(Cl)c(C(F)(F)F)c3)cc2O1 [Example 10, 1-(4-Chloro-3-(trifluoromethyl)phenyl)-3-(2,2-difluorobenzo[d][1,3]dioxol-5-yl)thiourea] | 1000 nM |  |  |
| O=C(Nc1ccc(Cl)c(C(F)(F)F)c1)Nc1ccc2ccccc2c1 [Example 11, 1-(4-Chloro-3-(trifluoromethyl)phenyl)-3-(naphthalen-2-yl)urea] | 1000 nM |  |  |
| O=C(Nc1ccc(Cc2ccccc2)cc1)Nc1ccc(Cl)c(C(F)(F)F)c1 [Example 12, 1-(4-Benzylphenyl)-3-(4-chloro-3-(trifluoromethyl)phenyl)urea] | 1000 nM |  |  |
| CCc1ccc(NC(=O)Nc2ccc(Cl)c(C(F)(F)F)c2)cc1 [Example 13, 1-(4-Chloro-3-(trifluoromethyl)phenyl)-3-(4-ethylphenyl)urea] | 1000 nM |  |  |
| Cc1cc(NC(=O)Nc2ccc3c(c2)OC(F)(F)O3)ccc1Cl [Example 14, 1-(4-Chloro-3-methylphenyl)-3-(2,2-difluorobenzo[d][1,3]dioxol-5-yl)urea] | 1000 nM |  |  |
| O=C(Nc1cccc(C(F)(F)F)c1)Nc1ccc2c(c1)OC(F)(F)O2 [Example 15, 1-(2,2-difluorobenzo[d][1,3]dioxol-5-yl)-3-(3-(trifluoromethyl)phenyl)urea] | 1000 nM |  |  |
| O=C(Nc1ccccc1)Nc1ccc(Cl)c(C(F)(F)F)c1 [Example 16, 1-(4-Chloro-3-(trifluoromethyl)phenyl)-3-phenylurea] | 3000 nM |  |  |
| CCCCOC(=O)c1ccc(NC(=O)Nc2ccc(Cl)c(C(F)(F)F)c2)cc1 [Example 17, Butyl 4-(3-(4-chloro-3-(trifluoromethyl)phenyl)ureido)benzoate] | 600 nM |  |  |
| O=C(Nc1ccc(Oc2ccccc2)cc1)Nc1ccc(Cl)c(C(F)(F)F)c1 [Example 18, 1-(4-Chloro-3-(trifluoromethyl)phenyl)-3-(4-phenoxyphenyl)urea] | 600 nM |  |  |
| O=C(Nc1cccc(NC(=O)Nc2ccc(Cl)c(C(F)(F)F)c2)c1)Nc1ccc(Cl)c(C(F)(F)F)c1 [Example 19] | 1000 nM |  |  |
| C#CCCC1(CCNC(=O)c2cc(Oc3ccc(NC(=O)Nc4ccc(Cl)c(C(F)(F)F)c4)cc3)ccn2)N=N1 [Probe compound, N-(2-(3-(but-3-yn-1-yl)-3H-diazirin-3-yl)ethyl)-4-(4-(3-(4-chloro-3-(trifluoromethyl)phenyl)ureido)phenoxy)picolinamide] | 10000 nM |  |  |
| O=C(Nc1ccccc1)Nc1ccc2c(c1)OC(F)(F)O2 [Reference Example 1, 1-(2,2-Difluorobenzo[d][1,3]dioxol-5-yl)-3-phenylurea] | > 100000 nM | no change |  |
| Cc1ccc(NC(=O)Nc2ccc3c(c2)OC(F)(F)O3)cc1 [Reference Example 2, 1-(2,2-Difluorobenzo[d][1,3]dioxol-5-yl)-3-(p-tolyl)urea] | > 100000 nM |  |  |
| Cc1cc(C)c(NC(=O)Nc2ccc3c(c2)OC(F)(F)O3)c(C)c1 [Reference Example 3, 1-(2,2-Difluorobenzo[d][1,3]dioxol-5-yl)-3-mesitylurea] | > 100000 nM |  |  |
| CCCCCCCCNC(=O)Nc1ccc2c(c1)OC(F)(F)O2 [Reference Example 4, 1-(2,2-Difluorobenzo[d][1,3]dioxol-5-yl)-3-octylurea] | > 100000 nM |  |  |
| CNC(=O)c1cc(Oc2ccc(NC(=O)Nc3ccccc3)cc2)ccn1 [Reference Example 5, N-Methyl-4-(4-(3-phenylureido)phenoxy)picolinamide] | > 100000 nM | no change |  |
| O=C(O)c1cn(C2CC2)c2cc(N3CCNCC3)c(F)cc2c1=O [ciprofloxacin, reference compound] |  | no change | no change |
